Reference: patent EP3501280A1, “COMPOSITION COMPRISING AN AGROCHEMICALLY ACTIVE COMPOUND AND A CARBONATE” (priority 2017, dated 2019)
≈ marks a conversion by molar mass, not a printed value.

Legend:
[1] = at 20°C; cited from earlier work
[2] = Solubility of carbonates in water (OECD guideline 105, flask method); assay type: physicochemical; conditions: for Solubility of carbonates in water: OECD 105 flask method
Excerpt: The water solubility of a substance is the saturation mass concentration of the substance in water at a given temperature. Determination according to OECD guideline for testing of chemicals 105, flask method.

[3] = Determination of boiling point of carbonates; assay type: physicochemical; conditions: calculated from boiling point measured at a pressure below 101.3 kPa
Protocol: (§1) Determination of boiling point: measured at a pressure below 101.3 kPa; the boiling point measured at this pressure below 101.3 kPa were used to calculate the boiling point at 101.3 kPa by using the following tool: http://www.calctool.org/CALC/chem/substance/boiling. Determination of dynamic viscosity: By using Anton Paar viscosimeter SVM 3000/G2, viscosity was measured at 23°C. Said Anton Paar viscosimeter is a rotational viskosimeter and works according the Stabinger measurement principle.

[4] = Determination of dynamic viscosity (Anton Paar viscosimeter SVM 3000/G2); assay type: physicochemical; conditions: dynamic viscosity at 23°C
Protocol: as §1

[5] = test system: Blumeria graminis f. sp. hordei (type A6); assay: Protective leaf-segment test on barley; assay type: in vivo; conditions: barley (HORVX), 2 WAT; for Effect [%]: infestation relative to no carbonate
Protocol: (§2) Plants tested: barley (HORVX); cultivation of plants: three plants per pot were cultivated in fine Frustorfer soil for three weeks.
The plants were treated with the following SC formulation: fungicidal formulation - 25% by weight azoxystrobin, 16.7% by weight Tamol® NN 2901, 10% by weight propyleneglycol, 48.3% by weight water. The effect of a carbonate (numbering according to Table 1 above) was tested by adding the respective carbonate to the […] formulation prior to treatment of the plants.
10 hours after treatment with fungicidal formulation, beginning from the stalk, 7 cm leaf segments have been cut; the most recent and the second most recent leaf of a plant were used. 15 pieces of said 7 cm leaf segments were collected and put onto benzimidazole-agar (0.5% agar, 40 ppm benzimidazole added after treatment by autoclave).
The leaf segments on the agar plates were inoculated with fresh conidia of Blumeria graminis f. sp. hordei (type A6).
The agar plates (10x10cm) were then incubated at 18°C during night time and 23°C during day time at 60-70% air moisture in an incubator for a certain time.
The determination of the mildew infestation was carried out by determining the surface per leaf within 5 cm leaf length infested with mildew. WAT (weeks after treatment) were chosen according to constant impairment observed.

[6] = test system: Blumeria graminis f. sp. hordei (type A6); assay: Curative leaf-segment test on barley; assay type: in vivo; conditions: barley (HORVX), 2 WAT; for Effect [%]: pustules relative to no carbonate
Protocol: as §2
The plants were inoculated with fresh conidia of Blumeria graminis f. sp. hordei (type A6). 24-48h after inoculation with mildew, the plants were treated with the following liquid formulation: fungicidal formulation OPUS® SC 125 (BASF SE; comprising epoxiconazole). The effect of a carbonate (numbering according to Table 1 above) was tested by adding the respective carbonate to the liquid formulation prior to treatment of the plants.
10 hours after treatment with fungicidal formulation, beginning from the stalk, 7 cm leaf segments were cut; the most recent leaf and the second most recent leaf of a plant were used. 15 pieces of said 7 cm leaf segments were collected and put onto benzimidazole-agar (0.5% agar, 40 ppm benzimidazole added after treatment by autoclave. The agar plates (10x10cm) were then incubated at 18°C during night time and at 23°C during day time at 60-70% air moisture in an incubator for a certain time.
The determination of the mildew infestation was carried out by mildew pustules per leaf within 5 cm leaf length. WAT (weeks after treatment) were chosen according to constant impairment observed. Table Ex6b: Dosing of agrochemically active compound with and without component (b) in curative leaf-segment test on barley (HORVX) and the infestation of mildew after WAT

[7] = azoxystrobin 10 g/ha SC formulation plus carbonate No 1 at 50 g/ha
[8] = epoxiconazole 10 g/ha (OPUS® SC 125) plus carbonate No 1 at 50 g/ha
[9] = azoxystrobin 10 g/ha SC formulation, amount of carbonate 0 g/ha
[10] = epoxiconazole 10 g/ha (OPUS® SC 125), amount of carbonate 0 g/ha

Structure (SMILES): CC(Cc1ccc(C(C)(C)C)cc1)CN1C[C@@H](C)O[C@@H](C)C1 (stereo partly shown) [pesticide 9, fenpropimorph]
- Solubility in H2O (data from literature*) [1]: 4.3mg/l at 20 °C

Structure (SMILES): CCCC1COC(=O)O1 (stereo not shown) [compound 2]
- Solubility of carbonates in water [2]: 21 g carbonate per l water
- Boiling point °C at 101.3 kPa [3]: >180 °C
- Viscosity mPa.s at 23°C [4]: 4.2 mPa.s

Structure (SMILES): CCC(=O)OCC1COC(=O)O1 (stereo not shown) [compound 1]
- % leaf surface infested with mildew - average value of 15 leaves [5, 7]: 28%
- Effect [%] [5, 7]: 72.35%
- Solubility of carbonates in water [2]: 54 g carbonate per l water
- Boiling point °C at 101.3 kPa [3]: >180 °C
- Viscosity mPa.s at 23°C [4]: 32 mPa.s
- Mildew pustules - average value of 15 leaves [6, 8]: 34.7
- Effect [%] [6, 8]: 84%

Structure (SMILES): CC(O)(Cn1cncn1)c1ccc(Oc2ccc(Cl)cc2)cc1C(F)(F)F (stereo not shown) [pesticide 7, mefentrifluconazole]
- Solubility in H2O (data from literature*) [1]: 0.81 mg/l at 20 °C

Structure (SMILES): CC(=O)OCC1COC(=O)O1 (stereo not shown) [compound 3]
- Solubility of carbonates in water [2]: 72 g carbonate per l water
- Boiling point °C at 101.3 kPa [3]: >180 °C
- Viscosity mPa.s at 23°C [4]: 59.1 mPa.s

Structure (SMILES): CO/C=C(/C(=O)OC)c1ccccc1Oc1cc(Oc2ccccc2C#N)ncn1 [pesticide 2, azoxystrobin, reference compound]
- % leaf surface infested with mildew - average value of 15 leaves [5, 9]: 38.7%
- Effect [%] [5, 9]: 100%
- Solubility in H2O (data from literature*) [1]: 6.7 mg/l at 20 °C

Structure (SMILES): COC(=O)N(OC)c1ccccc1COc1ccn(-c2ccc(Cl)cc2)n1 [pesticide 3, pyraclostrobin]
- Solubility in H2O (data from literature*) [1]: 1.9 mg/l at 20 °C

Structure (SMILES): Cn1cc(C(=O)Nc2ccccc2-c2cc(F)c(F)c(F)c2)c(C(F)F)n1 [pesticide 8, fluxapyroxad]
- Solubility in H2O (data from literature*) [1]: 3.88 mg/l at 20 °C

Structure (SMILES): CC1COC(=O)O1 (stereo not shown) [propylene carbonate, reference compound]
- water solubility ([2]; comparison value for propylene carbonate, source not stated): 175 mg/mL (≈ 1710 mM)

Structure (SMILES): CC(C)(C)C(O)(CCc1ccc(Cl)cc1)Cn1cncn1 (stereo not shown) [pesticide 5, tebuconazole]
- Solubility in H2O (data from literature*) [1]: 29 mg/l at 20 °C

Structure (SMILES): Fc1ccc([C@]2(Cn3cncn3)O[C@H]2c2ccccc2Cl)cc1 (racemic) [pesticide 4, epoxiconazole, reference compound]
- Solubility in H2O (data from literature*) [1]: 8.42 mg/l at 20 °C
- Mildew pustules - average value of 15 leaves [6, 10]: 41.3
- Effect [%] [6, 10]: 100%
